Assays:
Test in all cases: in-line probing
Conditions in all cases: 20 mM MgCl2, 100 mM KCl, 50 mM Tris-HCl pH 8.3, 28 °C, 42-48 h, apparent
[1] = tested on: aptamer 1 (c-di-GMP-I riboswitch aptamer, cluster 1) (RNA, riboswitch) GUCGUGAACAAGCCACACCCCGGGCGACCGGGGGCCGGAAAGCCGCGGGUCUCAGCAGAGACGGCCGGGUUGCCACCAGGC
[2] = tested on: aptamer 3 (c-AMP-GMP riboswitch aptamer, cluster 3) (RNA, riboswitch) GCCGUGAAAAAACCACACCUCGGGCGACCGGGGGCCGGAAAGCCGCGGGUCUCAAAGGAGAUGGCCGGGUUGCCAGAAGGC
[3] = tested on: aptamer 2 (c-di-GMP-I riboswitch aptamer, cluster 2) (RNA, riboswitch) GUCGUGAAGAAGCCACACCCCGGGCGACCGGGGGCCGGAAAGCCGCGGGUCUCAGCAGAGACGGCCGGGUUGCCACCAGAC

Row | KD ([1]; Hill coefficient fixed at 1) | KD ([2]; Hill coefficient fixed at 1) | KD ([3]; Hill coefficient fixed at 1) | KD ([1]; Hill coefficient fixed at 1, micro sign lost in text layer ("34 M")) | KD ([2]; Hill coefficient fixed at 1, micro sign lost in text layer ("1 M")) | KD ([3]; Hill coefficient fixed at 1, micro sign lost in text layer ("25 M")) | Compound
1 | ~ 20 nM | ~ 100 nM | ~ 77 nM |  |  |  | Nc1nc2c(ncn2[C@@H]2O[C@@H]3COP(=O)(O)O[C@H]4[C@@H](O)[C@H](n5cnc6c(=O)[nH]c(N)nc65)O[C@@H]4COP(=O)(O)O[C@H]3[C@H]2O)c(=O)[nH]1
2 |  |  |  | ~ 34 µM | ~ 1 µM | ~ 25 µM | Nc1nc2c(ncn2[C@@H]2O[C@@H]3COP(=O)(O)O[C@H]4[C@@H](O)[C@H](n5cnc6c(N)ncnc65)O[C@@H]4COP(=O)(O)O[C@H]3[C@H]2O)c(=O)[nH]1

From article PMC9481103 (2022)
